What all share (assay type): in vivo
For data set [1], the system named is six broadleaf weeds (CASOB, IPOHE, ABUTH, AMARE, CHEAL, XANST). In words: Greenhouse pre-emergence test, mean control of six broadleaf weeds. The conditions noted are these: soil surface spray 1 day after planting, visual rating 0-100% after two weeks, grass herbicides 1000 g/ha, atrazine 1680 g/ha, isoxaflutole 78 g/ha, B-128 125 g/ha. The source says:
(§1) Seeds of weed species were sown in 10 cm square plastic pots containing a 3:2:1 sand:soil:peat mixture. Species included six broadleaf weeds, CASOB (Cassia obtusifolia, L., sicklepod), IPOHE (Ipomoea hederacea, L., ivyleaf morningglory), ABUTH (Abutilon theophrastii, velvetleaf, AMARE (Amaranthus retroflexus, redroot pigweed), CHEAL (Chenopodium album, lambsquarters) and XANST (Xanthium strumarium, cocklebur ), four grass weeds, SORHA (Sorghum halepense, johnsongrass), SETVI (Setaria viridis, green foxtail), ECHCG (Echinochloa crus-galli, bamyardgrass), and DIGSA (Digitria sanguinalis, large crabgrass) and four crops species, Zea mays, Glycine max L. Triticum aestivum, and Oryza sativa. Herbicide treatments were applied in water carrier via automated track sprayer to the soil surface of these pots 1 day after planting. The sprayer was calibrated to deliver the material in a volume of 187 l/ha through a TJ8001E spray nozzle at a pressure of 40 PSI.
(§2) Treatments included the compounds of formula I numbers 1, 15, 16 and 23, the commercial grass herbicides metolachlor S (Dual II Magnum®), acetochlor (Harness®), alachlor (Lasso MT®) alone and in combination with three broadleaf herbicides, atrazine, isoxaflutole and compound B-128 (Table 2). All grass herbicides (compounds 1, 15, 16, 23, metolachlor S, acetochlor and alachor were applied at a rate of 1000 g/ha. The broadleaf herbicides were applied at 1680 g/ha for atrazine, 78 g/ha for isoxaflutole and 125 g/ha for B-128.
(§3) After treatment, pots were returned to a greenhouse where they were watered and held in good growth conditions for two weeks. At the end of two weeks, herbicidal efficacy was evaluated visually using a rating system from 0-100%, where 0=no inhibition of growth, and 100=complete death of all plants in the testing unit. Results are reported in table 3 as the mean control of all six broadleaf weeds, mean control of all four grass weeds and the phytotoxicity to maize.

Data set [2] concerns four grass weeds (SORHA, SETVI, ECHCG, DIGSA). In words: Greenhouse pre-emergence test, mean control of four grass weeds. The note with it: soil surface spray 1 day after planting, visual rating 0-100% after two weeks, grass herbicides 1000 g/ha, atrazine 1680 g/ha, isoxaflutole 78 g/ha, B-128 125 g/ha.
From the text: as §1, §2, §3

A further data set concerns broadleaf weeds. In words: Field trials, mean control of broadleaf weeds. The note with it: grass herbicides 1000 g/ha, atrazine 1680 g/ha, B-128 150 g/ha. The source says:
(§4) Two field trials were established on contrasting soil types. Trial 1 was on a soil with low organic matter and high sand content, and trial 2 was on a clay loam soil with moderate amounts of organic matter. In both cases, the soil was overseeded (followed by light tillage) with seeds of Amaranthus retroflexus, Abutilon theophrasti, Chenopodium album, Ipomoea hederacea, and Setaria viridis to ensure consistent weed populations. Maize was planted with 30 inches between rows. Immediately after planting the maize, herbicidal treatments were applied using a boom sprayer equipped with Tee Jet 110-015 nozzles applying the spray solution at a rate of 187 l/hectare. Untreated check plots were included as the basis for comparison of herbicidal efficacy.
(§5) Treatments included the compound of formula I number 16, the commercial grass herbicides metolachlor S (Dual II Magnum®), acetochlor (Harness®) and dimethenamid (Frontier®) alone and in combination with two broadleaf herbicides, atrazine and B-128. All grass herbicides (compound 16, metolachlor S, acetochlor and dimethenamid) were applied at a rate of 1000 g/ha. The broadleaf herbicides were applied at 1680 g/ha for atrazine and 150 g/ha for B-128.
(§6) Observations on percent weed control and phytotoxicity to maize were made at 35 days after treatment for field trial 1 and 21 days after application for field trial 2. All visual estimates were made in comparison to untreated check plots. Results reported are the mean control of broadleaf weeds, and percent control for Setaria viridis, the predominant grassy weed in this experiment.

The test system of a further data set is Setaria viridis. As to the kind of experiment: Field trials, control of Setaria viridis. The conditions noted are these: grass herbicides 1000 g/ha, atrazine 1680 g/ha, B-128 150 g/ha.
From the text: as §4, §5, §6

Data set [3] has as its system maize. As to the kind of experiment: Field trials, phytotoxicity to maize. The note with it: grass herbicides 1000 g/ha, atrazine 1680 g/ha, B-128 150 g/ha.
From the text: as §4, §5, §6

Data set [4] has as its system Amaranthus retroflexus, Abutilon theophrasti, Chenopodium album, Ipomoea hederacea, and Setaria viridis. As to the kind of experiment: Field trials, overall herbicidal performance in words.
From the text: as §4, §5
Observations on percent weed control and phytotoxicity to maize were made at 35 days after treatment for field trial 1 and 21 days after application for field trial 2. […]

Data set [5] relates to maize. As to the kind of experiment: Greenhouse pre-emergence test, phytotoxicity to maize.
From the text: as §1, with “PSI. […]” for “PSI.”
After treatment, pots were returned to a greenhouse where they were watered and held in good growth conditions for two weeks. At the end of two weeks, herbicidal efficacy was evaluated visually using a rating system from 0-100%, where 0=no inhibition of growth, and 100=complete death of all plants in the testing unit. […]

The mark [6] stands for this setting: field trial 1, low organic matter, high sand content soil, 35 days after application.
Where [7] appears, read: field trial 2, moderate organic matter, high clay content soil, 21 days after application.

The source of these data is patent US6455469B1, “Herbicidal composition” (Ishihara Sangyo Kaisha, Ltd., priority 2000, dated 2002).

For the compound `CCOCN(C(=O)CCl)c1c(C)cccc1CC` [acetochlor, 2-chloro-N-ethoxymethyl-6′-ethylacet-o-toluidide], the broadleaf control was 75% in data set [1], 50% in the data set on broadleaf weeds (setting [6]) and 36% in the data set on broadleaf weeds (setting [7]). For the same compound, in data set [2], the Grass control came to 100%. Further, the results for the S. viridis control in the data set with Setaria viridis (setting [6]) and in the data set with Setaria viridis (setting [7]) were 99% and 87%, respectively.
Take `C#CCN(C(=O)CCl)c1c(C)cccc1CC` [Cpd 15]: the broadleaf control in data set [1] was determined as 32%. For the same compound, the Grass control in data set [2] is 100%.
Take `C#CCN(C(=O)CCl)c1c(CC)cccc1CC` [Cpd 16]: the values for the broadleaf control (in data set [1]; with broadleaf weeds (setting [6]); with broadleaf weeds (setting [7])) were 53%, 33% and 24%, respectively. In addition, the Grass control in data set [2] is given as 100%. The S. viridis control in the data set on Setaria viridis (setting [6]) was 96%; in the data set with Setaria viridis (setting [7]), 75%. Further, the Phytotoxicity in the data set on maize [3] (setting [6]) was 0%; with maize [3] (setting [7]), 2%. The “performance (in words)” value in data set [4] (higher organic, high clay soil, compared with the three standards) was “relatively better than two of the three standards”. Moreover, the “efficacy (in words)” value in data set [4] (sandy, low organic matter soil, combined with atrazine or B-128) was “equal efficacy as other herbicides”.
Regarding `C#CCN(C(=O)CCl)c1c(C)cccc1C` [Cpd 23], the broadleaf control in data set [1] was 33%. Also, in data set [2], the Grass control worked out at 100%. Moreover, the “phytotoxicity to maize (in words)” value in the data set with maize [5] (in vivo) was “moderately more phytotoxic”.
In the case of `CCc1cccc(CC)c1N(CC#N)C(=O)CCl` [Cpd 1], the broadleaf control in data set [1] was 22%. Moreover, in data set [2], the Grass control is recorded as 100%.
Turning to `CCc1cccc(C)c1N(C(=O)CCl)[C@@H](C)COC` [Metolachlor S, (S)-2-chloro-N-(2-ethyl-6-methylphenyl)-N-(2-methoxy-1-methylethyl)acetamide], the results for the broadleaf control (in data set [1]; with broadleaf weeds (setting [6]); with broadleaf weeds (setting [7])) were 41%, 40% and 18%, respectively. Moreover, the Grass control in data set [2] came out at 100%. Also, the Phytotoxicity turned out to be 0% in the data set with maize [5] (phytotoxicity to maize, greenhouse, visual rating 0-100% after two weeks, grass herbicides 1000 g/ha, atrazine 1680 g/ha, isoxaflutole 78 g/ha, B-128 125 g/ha); 0% in the data set on maize [3] (setting [6]); 1% with maize [3] (setting [7]). Besides, the S. viridis control in the data set with Setaria viridis (setting [6]) came out at 100%; in the data set with Setaria viridis (setting [7]), 60%.
`COCC(C)N(C(=O)CCl)c1c(C)csc1C` (centres unmarked) [dimethenamid, 2-chloro-N-[(1-methy-2-methoxyl)ethyl]-N-(2,4-dimethyl-3-thienyl)-acetamide]: the broadleaf control in data set [1] amounted to 68%; with broadleaf weeds (setting [6]), 44%; in the data set with broadleaf weeds (setting [7]) it was 26%. Moreover, the Grass control in data set [2] is 100%. In addition, the S. viridis control in the data set on Setaria viridis (setting [6]) is reported as 100%; with Setaria viridis (setting [7]), 86%.
